Data on eleven compounds can be found in patent US20260217711A1, “TRIAZOLOPYRIDINYL ETHER LINKED COMPOUNDS AS KINASE INHIBITORS” (Bristol-Myers Squibb Company, priority 2023, published 2026).

The IC50 is the concentration needed to halve the response being measured.

Molecules are shown by their SMILES.

For the assay, the system named is MLKL phosphorylation (pMLKL) in HT29-L23 cells. In words: MLKL Phosphorylation High-Content Assay. The class given is cell-based. The following applies: necroptosis induced with human TNFα, SMAC mimetic and Z-VAD, 6 h, read-out: LE pMLKL HC IC50. The protocol:
Following 6 h incubation at 37° C. […] MLKL phosphorylation was detected using anti-MLKL (phospho […]) antibody (Abcam #ab187091) (1:1000 dilution in Blocking Buffer [PBS supplemented with 0.1% BSA]) with ON incubation at 4° C. […] Following another three cycles of washes in PBS, the microplates were sealed, and cellular images were acquired in the Cellomics ArrayScan VTI high-content imager equipped with an X1 camera. […] The image sets were analyzed using the Compartmental Analysis Bioapplication software (Cellomics). The level of MLKL phosphorylation was quantified as […].
Take `Nc1nc2cc(-c3cccc(OCCC(F)C(O)c4ccc(F)cc4)c3F)ccn2n1` (single isomer, unassigned) [Example 84, 4-(3-(2-amino-[1,2,4]triazolo[1,5-a]pyridin-7-yl)-2-fluorophenoxy)-2-fluoro-1-(4-fluorophenyl)butan-1-ol]: the concentration for half-maximal inhibition (IC50) was 3.2 nM.

`CC(O)(c1ccc(F)cc1)C(F)(F)CCOc1ccc(F)c(-c2ccn3nc(N)nc3c2)n1` (single isomer, unassigned) [Example 78, 5-((6-(2-amino-[1,2,4]triazolo[1,5-a]pyridin-7-yl)-5-fluoropyridin-2-yl)oxy)-3,3-difluoro-2-(4-fluorophenyl)pentan-2-ol]: the half-inhibitory concentration (IC50) turned out to be 13 nM. For `Nc1nc2cc(-c3ccc(Cl)c(OCCC(F)C(O)c4ccc(F)cc4)c3F)ccn2n1` (single isomer, unassigned) [Example 101, 4-(3-(2-amino-[1,2,4]triazolo[1,5-a]pyridin-7-yl)-6-chloro-2-fluorophenoxy)-2-fluoro-1-(4-fluorophenyl)butan-1-ol] the value was 30 nM; for `COc1cc(F)c(OCCC(F)(F)C(C)(O)c2ccc(F)cc2)c(F)c1-c1ccn2nc(N)nc2c1` (single isomer, unassigned) [Example 20, 5-(3-(2-amino-[1,2,4]triazolo[1,5-a]pyridin-7-yl)-2,6-difluoro-4-methoxyphenoxy)-3,3-difluoro-2-(4-fluorophenyl)pentan-2-ol], 110 nM; for `[2H]C([2H])(CC(F)(F)C(C)(O)c1ccc(F)cc1)Oc1c(F)ccc(-c2ccn3nc(N)nc3c2)c1F` (single isomer, unassigned) [Example 14, 5-(3-(2-amino-[1,2,4]triazolo[1,5-a]pyridin-7-yl)-2,6-difluorophenoxy)-3,3-difluoro-2-(4-fluorophenyl)pentan-5,5-d2-2-ol], 30 nM.

For the compound `Nc1nc2cc(-c3ccc(Cl)c(OCCC(F)C(O)c4ccc(F)cc4)c3F)ccn2n1` (single isomer, unassigned) [Example 99, 4-(3-(2-amino-[1,2,4]triazolo[1,5-a]pyridin-7-yl)-6-chloro-2-fluorophenoxy)-2-fluoro-1-(4-fluorophenyl)butan-1-ol], the IC50 was found to be 15 nM.

Take `CC(O)(c1ccc(F)cc1)C(F)(F)CCOc1c(Cl)ccc(-c2ccn3nc(N)nc3c2)c1F` (single isomer, unassigned) [Example 5, 5-(3-(2-amino-[1,2,4]triazolo[1,5-a]pyridin-7-yl)-6-chloro-2-fluorophenoxy)-3,3-difluoro-2-(4-fluorophenyl)pentan-2-ol]: the IC50 came out at 150 nM. For `CC(O)(c1ccccc1)C(F)(F)CCOc1cccc(-c2ccn3nc(N)nc3c2)c1F` (single isomer, unassigned) [Example 67, 5-(3-(2-amino-[1,2,4]triazolo[1,5-a]pyridin-7-yl)-2-fluorophenoxy)-3,3-difluoro-2-phenylpentan-2-ol] the value was 4 nM; for `Nc1nc2cc(-c3ccc(Cl)c(OCCC(F)(F)C(O)c4ccc(F)cc4)c3F)ccn2n1` (single isomer, unassigned) [Example 59, 4-(3-(2-amino-[1,2,4]triazolo[1,5-a]pyridin-7-yl)-6-chloro-2-fluorophenoxy)-2,2-difluoro-1-(4-fluorophenyl)butan-1-ol], 2 nM; for `CC(O)(c1ccccc1)C(F)(F)CCOc1c(F)ccc(-c2ccn3nc(N)nc3c2F)c1F` (single isomer, unassigned) [Example 37, 5-(3-(2-amino-8-fluoro-[1,2,4]triazolo[1,5-a]pyridin-7-yl)-2,6-difluorophenoxy)-3,3-difluoro-2-phenylpentan-2-ol], 110 nM. For `Nc1nc2cc(-c3ccc(F)c(OCCC(F)C(O)c4ccc(F)cc4)c3F)ccn2n1` (single isomer, unassigned) [Example 102, 4-(3-(2-amino-[1,2,4]triazolo[1,5-a]pyridin-7-yl)-2,6-difluorophenoxy)-2-fluoro-1-(4-fluorophenyl)butan-1-ol] the value was 3 nM.
